Experimental data from patent US5631401A, “Inhibitors of protein farnesyltransferase and squalene synthase” (Abbott Laboratories, priority 1995, dated 1997).

Legend:
[1] = target: T1, Rat liver microsomal squalene synthase (Rattus norvegicus, UniProt Q02769); assay: In vitro inhibition of squalene synthase (rat liver microsomes, 3H-farnesyl diphosphate); type: biochemical; conditions: for inhibition at 1 µM: compared to controls with no test compound; for inhibition at 10 µM: 10 μM (footnote *), read-out: % Inhibition at 10 μM (squalene synthase, values marked *)
T1 construct: Rat liver microsomes, the source of enzyme, were prepared; from tissue; host or cells: rat liver microsomes
T1 sequence (Q02769 1-416): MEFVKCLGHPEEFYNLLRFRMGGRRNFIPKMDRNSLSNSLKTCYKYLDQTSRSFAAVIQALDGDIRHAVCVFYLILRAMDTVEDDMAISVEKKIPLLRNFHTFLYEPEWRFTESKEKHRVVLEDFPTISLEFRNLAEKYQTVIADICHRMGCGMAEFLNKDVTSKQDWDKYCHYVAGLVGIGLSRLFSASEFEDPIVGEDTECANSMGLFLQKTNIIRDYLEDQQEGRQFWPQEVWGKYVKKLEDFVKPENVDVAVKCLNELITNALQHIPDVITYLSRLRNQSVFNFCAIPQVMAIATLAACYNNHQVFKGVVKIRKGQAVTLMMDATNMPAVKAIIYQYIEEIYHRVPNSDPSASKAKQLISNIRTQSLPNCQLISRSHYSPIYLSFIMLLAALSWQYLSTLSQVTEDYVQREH
Experimental: In vitro inhibition of squalene synthase may be measured by the following procedure.
Rat liver microsomal squalene synthase activity was measured using radioactive farnesyl diphosphate as a substrate and quantitating squalene synthesis by counting the radioactive squalene formed.
Rat liver microsomes, the source of enzyme, were prepared according to the method of Gillies, P. J., et al., Exp. Molec. Pathol. 44: 329-339 (1986), a modification of the procedure of Erickson, S. K., and Cooper, A. D., Metabolism, 29: 991-996 (1980). Approximately 30 μg of microsomal protein was incubated for 10 minutes at 37° C. with 11 μM of ^3 H-farnesyl diphosphate, 49 mCi/mmol, and test compound in the presence of squalene (2 μL), Mg^++, KF, reduced B-nicotinamide adenine dinucleotide phosphate, dithiothreitol, and K2 PO4, pH 7.35, in a total volume of 200 μL. Oxygen was excluded from the closed incubation tube by degassing with nitrogen. The reaction was terminated by the addition of ethanolic KOH and after degassing with N2, the microsomal membranes were solubilized by heating at 60° C. for 30 minutes. The squalene was extracted into hexane, and the squalene was separated from all other radioactive molecules by passage over an activated alumina column. The solution was collected in scintillation vials, evaporated to dryness, liquid scintillation fluid was added, and the radioactivity was determined in a liquid scintillation counter. […]

[2] = target: T2, Rat brain protein farnesyltransferase (Rattus norvegicus, UniProt Q02293+Q04631); assay: In vitro inhibition of protein farnesyltransferase (biotin-lamin substrate, scintillation proximity assay); type: biochemical; conditions: for inhibition at 1 µM: 1 μM (footnote *), read-out: % Inhibition at 1 μM (protein farnesyltransferase, values marked *); for inhibition at 10 µM: compared to uninhibited control
T2 construct: The enzyme was purified according to Reiss, Y., et al., Cell, 62: 81-88 (1990), utilizing steps one through three; from tissue; host or cells: rat brain
Experimental: In vitro inhibition of protein farnesyltransferase may be measured by the following procedure. (Procedures for determination of the inhibition of farnesylation of the oncogene protein Ras are described by Goldstein, et al., J. Biol. Chem., 266: 15575-15578 (1991) and by Singh in U.S. Pat. No. 5,245,061 both of which are incorporated herein by reference.)
Rat brain protein farnesyltransferase activity was measured using the biotin-lamin substrate (which is known to undergo farnesylation in a manner analogous to Ras protein) and radioactive farnesyl diphosphate provided by Amersham Life Science in their commercial scintillation proximity assay kit for the determination of farnesyltransferase. The enzyme was purified according to Reiss, Y., et al., Cell, 62: 81-88 (1990), utilizing steps one through three. The specific activity of the enzyme was approximately 10 nmol substrate farnesylated/mg enzyme/hour. […]

Row | Structure (SMILES) | inhibition at 1 µM [1] [%] | inhibition at 1 µM [2] [%] | inhibition at 10 µM [2] [%] | inhibition at 10 µM [1] [%]
1 | O=C(O)[C@H]1[C@H](C(=O)N(Cc2ccc(Oc3ccccc3)cc2)Cc2cccs2)[C@H](C(=O)O)[C@H]1C(=O)N(Cc1ccc(Oc2ccccc2)cc1)Cc1cccs1 [Example 73, (1α,2β,3β,4α)-1,3-Di[N-(thien-2-ylmethyl)-N-(4-phenoxybenzyl)aminocarbonyl]cyclobutane-2,4-dicarboxylic acid] | 24 | 92 | – | –
2 | O=C(O)[C@H]1[C@H](C(=O)N(Cc2ccc(Oc3ccccc3)cc2)CC2CCC2)[C@H](C(=O)O)[C@H]1C(=O)N(Cc1ccc(Oc2ccccc2)cc1)CC1CCC1 [Example 100, (1α,2β,3β,4α)-1,3-Di[N-cyclobutylmethyl-N-(4-phenoxybenzyl)aminocarbonyl]cyclobutane-2,4-dicarboxylic acid] | 46 | 21 | – | –
3 | C[C@@H](c1ccccc1)N(Cc1ccc(Oc2ccccc2)cc1)C(=O)[C@H]1[C@H](C(=O)O)[C@H](C(=O)N(Cc2ccc(Oc3ccccc3)cc2)[C@@H](C)c2ccccc2)[C@H]1C(=O)O [Example 87, (1α,2β,3β,4α)-1,3-Di[N-(S)-α-Methylbenzyl-N-(4-phenoxybenzyl)aminocarbonyl]cyclobutane-2,4-dicarboxylic acid] | 76 | – | 86 | –
4 | CC(C)=CCC/C(C)=C/CCN(C)C(=O)[C@H]1[C@H](C(=O)O)[C@H](C(=O)N(C)CC/C=C(\C)CCC=C(C)C)[C@H]1C(=O)O [Example 32, (1α,2β,3β,4α)-1,3-Di[N-methyl-N-(4,8-dimethyl-3,7-nonadienyl)aminocarbonyl]cyclobutane-2,4-dicarboxylic acid] | – | – | 54 | 40
5 | CSCCN(Cc1ccc(Oc2ccccc2)cc1)C(=O)C1C(C(=O)O)C(C(=O)N(CCSC)Cc2ccc(Oc3ccccc3)cc2)C1C(=O)O (stereo not drawn) [Example 69, (1α,2β,3β,4α)-1,3-Di[N-(2-methylthioethyl)-N-(4-phenoxybenzyl)aminocarbonyl]cyclobutane-2,4-dicarboxylic acid] | 23 | 31 | – | –
6 | COc1cccc(CCN(Cc2ccc(Oc3ccccc3)cc2)C(=O)[C@H]2[C@H](C(=O)O)[C@H](C(=O)N(CCc3cccc(OC)c3)Cc3ccc(Oc4ccccc4)cc3)[C@H]2C(=O)O)c1 [Example 76, (1α,2β,3β,4α)-1,3-Di[N-(4-phenoxybenzyl)-N-(3-methoxyphenethyl)aminocarbonyl]cyclobutane-2,4-dicarboxylic acid] | 23 | – | 66 | –
7 | CC(C)CN(Cc1ccc(Oc2ccccc2)cc1)C(=O)[C@H]1[C@H](C(=O)O)[C@H](C(=O)N(Cc2ccc(Oc3ccccc3)cc2)CC(C)C)[C@H]1C(=O)O [Example 25, (1α,2β,3β,4α)-1,3-Di(N-isobutyl-N-(4-phenoxybenzyl)aminocarbonyl)cyclobutane-2,4-dicarboxylic acid] | 24 | – | 59 | –
8 | O=C(O)[C@H]1[C@H](C(=O)N(Cc2ccc(Oc3ccccc3)cc2)CC2CCCC2)[C@H](C(=O)O)[C@H]1C(=O)N(Cc1ccc(Oc2ccccc2)cc1)CC1CCCC1 [Example 101, (1α,2β,3β,4α)-1,3-Di[N-cyclopentylmethyl-N-(4-phenoxybenzyl)aminocarbonyl]cyclobutane-2,4-dicarboxylic acid] | 34 | 26 | – | –
9 | C#CCN(Cc1ccc(Oc2ccccc2)cc1)C(=O)[C@H]1[C@H](C(=O)O)[C@H](C(=O)N(CC#C)Cc2ccc(Oc3ccccc3)cc2)[C@H]1C(=O)O [Example 28, (1α,2β,3β,4α)-1,3-Di(N-propargyl-N-(4-phenoxybenzyl)aminocarbonyl)cyclobutane-2,4-dicarboxylic acid] | – | – | 28 | 49
10 | C=CCN(Cc1ccc(Oc2ccccc2)cc1)C(=O)[C@H]1[C@H](C(=O)O)[C@H](C(=O)N(CC=C)Cc2ccc(Oc3ccccc3)cc2)[C@H]1C(=O)O [Example 30, (1α,2β,3β,4α)-1,3-Di(N-allyl-N-(4-phenoxybenzyl)aminocarbonyl)cyclobutane-2,4-dicarboxylic acid] | – | – | 37 | 63
11 | O=C(O)[C@H]1[C@H](C(=O)N(Cc2ccc(Oc3ccccc3)cc2)CC2CCCCC2)[C@H](C(=O)O)[C@H]1C(=O)N(Cc1ccc(Oc2ccccc2)cc1)CC1CCCCC1 [Example 91] | 41 | – | 36 | –
12 | CC[C@@H](C)N(Cc1ccc(Oc2ccccc2)cc1)C(=O)[C@H]1[C@H](C(=O)O)[C@H](C(=O)N(Cc2ccc(Oc3ccccc3)cc2)[C@H](C)CC)[C@H]1C(=O)O [Example 102, (1α,2β,3β,4α)-1,3-Di[N-((2R)-Sec-butyl)-N-(4-phenoxybenzyl)aminocarbonyl]cyclobutane-2,4-dicarboxylic acid] | 48 | – | 37 | –
13 | CCCN(Cc1ccc(Oc2ccccc2)c(C)c1)C(=O)C1C(C(=O)O)C(C(=O)N(CCC)Cc2ccc(Oc3ccccc3)c(C)c2)C1C(=O)O (stereo not drawn) [Example 59, (1α,2β,3β,4α)-1,3-Di{N-propyl-N-[(3-methyl-4-phenoxy)benzyl]aminocarbonyl}cyclobutane-2,4-dicarboxylic acid] | 46 | – | 54 | –
14 | CN(Cc1cccc(Oc2ccccc2)c1)C(=O)[C@H]1[C@H](C(=O)O)[C@H](C(=O)N(C)Cc2cccc(Oc3ccccc3)c2)[C@H]1C(=O)O [Example 19, (1α,2β,3β,4α)-1,3-Di(N-methyl-N-(3-phenoxybenzyl)aminocarbonyl)cyclobutane-2,4-dicarboxylic acid] | – | – | 80 | 52
15 | O=C(O)[C@H]1[C@H](C(=O)N(Cc2ccccc2)Cc2ccc(Cl)cc2)[C@H](C(=O)O)[C@H]1C(=O)N(Cc1ccccc1)Cc1ccc(Cl)cc1 [Example 34, (1α,2β,3β,4α)-1,3-Di[N-benzyl-N-(4-chlorobenzyl)aminocarbonyl]cyclobutane-2,4-dicarboxylic acid] | – | – | 40 | 29
16 | O=C(O)[C@H]1[C@H](C(=O)N(Cc2ccccc2)Cc2ccc(Oc3ccccc3)cc2)[C@H](C(=O)O)[C@H]1C(=O)N(Cc1ccccc1)Cc1ccc(Oc2ccccc2)cc1 [Example 16, (1α,2β,3β,4α)-1,3-Di[N-benzyl-N-(4-phenoxybenzyl)aminocarbonyl]cyclobutane-2,4-dicarboxylic acid] | 25 | – | 98 | –
17 | CCCN(Cc1cccc(Oc2ccccc2)c1)C(=O)C1C(C(=O)O)C(C(=O)N(CCC)Cc2cccc(Oc3ccccc3)c2)C1C(=O)O (stereo not drawn) [Example 51, (1α,2β,3β,4α)-1,3-Di[N-propyl-N-(3-phenoxybenzyl)aminocarbonyl]cyclobutane-2,4-dicarboxylic acid] | 27 | – | 68 | –
18 | CN(Cc1cccc(Oc2ccc(F)cc2)c1)C(=O)[C@H]1[C@H](C(=O)O)[C@H](C(=O)N(C)Cc2cccc(Oc3ccc(F)cc3)c2)[C@H]1C(=O)O [Example 22, (1α,2β,3β,4α)-1,3-Di[N-methyl-N-(3-(4-fluorophenoxy)benzyl)aminocarbonyl]cyclobutane-2,4-dicarboxylic acid] | – | – | 78 | 47
19 | O=C(O)[C@H]1[C@H](C(=O)N(Cc2ccc(Oc3ccccc3)cc2)CC2CC2)[C@H](C(=O)O)[C@H]1C(=O)N(Cc1ccc(Oc2ccccc2)cc1)CC1CC1 [Example 93, (1α,2β,3β,4α)-1,3-Di[N-Cyclopropylmethyl-N-(4-phenoxybenzyl)aminocarbonyl]cyclobutane-2,4-dicarboxylic acid] | 52 | – | 74 | –
